Results reported in patent US20250083204A1, “CUPRIAVIDUS METALLIDURANS CML2, ITS PREPARATION, AND ITS BIOR[…] FOR HEAVY METAL-CONTAMINATED ENVIRONMENT” (priority 2023, published 2025).
Values joined by “and” are separate entries in the source; they are usually repeats but may differ in a detail not shown here. Equal values may be shown once.

Legend:
[1] = system: Cupriavidus metallidurans CML2; type: cell-based; conditions: for MIC: lowest concentration of heavy metal inhibiting growth of CML2
Excerpt: Note that the MIC values refer to the lowest concentration of each heavy metal required to inhibit the growth of Cupriavidus metallidurans CML2.

[2] = system: rice seedling; test: Rice seedling root and shoot growth; type: in vivo; conditions: 14-day cultivation, cadmium alone
Excerpt: FIG. 7A-7C are schematic diagrams illustrating an effect of Cupriavidus metallidurans CML2 inoculation on rice seedling growth and cadmium remediation. FIG. 7A illustrates the effects of Cupriavidus metallidurans CML2 on rice seedling morphology; FIG. 7B illustrates the effects of Cupriavidus metallidurans CML2 on relative lengths of the root and shoot under different conditions. C: control, treated with sterile NB medium; CML2: treated with strain CML2; Cd: treated with Cd^2+; CML2+Cd: treated with both CML2 and Cd^2+; FIG. 7C illustrates the effects of Cupriavidus metallidurans CML2 on cadmium accumulation in rice seedling roots and shoots; data represents means±SEM; different letters (a or b) above the columns indicate significant differences between the three groups using one-way ANOVA at P<0.05; “***” indicates statistically significant differences according to a t-test, P<0.001.
To assess the impact of strain CML2 as a facilitator for plant growth and a cadmium remediation agent, Embodiment 8 conducted an analysis on the relative lengths of rice roots and shoots as well as cadmium concentrations, under different treatments: control, Cupriavidus metallidurans CML2 (CML2), cadmium (Cd), and CML2+Cd (Simultaneous treatment with cadmium and CML2). The control group (C) consisted of rice plants cultured in a sterile nutrient solution.

Compound | MIC [1] | tolerance of CML2 to heavy metal [1] | inhibition of rice root and shoot growth compared to control [2]
[Cu+2] [Copper (Cu^2+), Copper] | 2.0 mM | – | –
[Mn+2] [Manganese (Mn^2+), Manganese] | 110 mM | 110 mM | –
[Se+4] [Selenium (Se^4+), Selenium] | 45 mM | – | –
Mercury [Mercury (Hg^2+)] | 0.03 mM | 0.03 mM | –
[Ni+2] [Nickel (Ni^2+), Nickel] | 2.5 mM | – | –
[Zn+2] [Zinc (Zn^2+), Zinc] | 20 mM | – | –
[Cd+2] [Cadmium (Cd^2+), Cadmium] | 13.1 mM | 13 mM and 2400 mg/L | approximately 89%
